Values after ≈ are worked out from the molar mass of the structure shown.

Type in all cases: functional
Test [1] deals with Mycolicibacterium phlei. The test is described as follows: Antibacterial activity against Mycobacterium phlei.
Test [2] concerns Mycobacterium tuberculosis. Briefly: Antibacterial activity against Mycobacterium tuberculosis H37Rv.
A short description of test [3]: Antibacterial activity against Mycobacterium avium subsp. avium ATCC 25291.
The subject of test [4] is Mycobacterium avium subsp. paratuberculosis. Briefly: Antibacterial activity against Mycobacterium avium subsp. paratuberculosis ATCC 43015.
Test [5] relates to Staphylococcus aureus. Briefly: Antibacterial activity against methicillin resistant Staphylococcus aureus No. 5.
The subject of test [6] is Mycobacterium tuberculosis. Briefly: Antibacterial activity against Mycobacterium tuberculosis Kurono.
Test [7] relates to Mycobacterium tuberculosis. Briefly: Antibacterial activity against Mycobacterium tuberculosis JCM 6384.
Test [8] deals with Mycolicibacterium smegmatis. The test is described as follows: Antibacterial activity against Mycobacterium smegmatis ATCC 607.
Test [9] relates to Mycolicibacterium vaccae. The test is described as follows: Antibacterial activity against Mycobacterium vaccae ATCC 15483.
Test [10] relates to Staphylococcus aureus. The test is described as follows: Antibacterial activity against Staphylococcus aureus FDA 209P.
Test [11] relates to Staphylococcus aureus. Briefly: Antibacterial activity against methicillin resistant Staphylococcus aureus MS16526.
Test [12] has as its system Bacillus subtilis. The test is described as follows: Antibacterial activity against Bacillus subtilis PCI 219.
For test [13], the system named is Escherichia coli. Briefly: Antibacterial activity against Escherichia coli K-12.
For test [14], the system named is Streptococcus pneumoniae. Briefly: Antibacterial activity against Streptococcus pneumoniae PCI 602.

For `CCCCCCCCCNC(=O)C1=CCN(C)[C@@H]([C@H](O[C@@H]2O[C@H](CN)[C@@H](O)[C@H]2O)[C@H]2O[C@@H](n3ccc(=O)[nH]c3=O)[C@H](O)[C@@H]2O)C(=O)N1C`, the minimum inhibitory concentration (MIC) (in general, the lowest concentration found to suppress growth) came out at 3.13 µg/mL (≈ 4.58 µM) in test [1]; 1.56 µg/mL (≈ 2.28 µM) in [2]; 1.56 µg/mL (≈ 2.28 µM) in test [3]; 0.2 µg/mL (≈ 0.293 µM) in [4]; 50 µg/mL (≈ 73.2 µM) in test [5]; 0.78 µg/mL (≈ 1.14 µM) in [6]. The MIC was determined as 0.2 µg/mL (≈ 0.293 µM) in test [7]; 0.78 µg/mL (≈ 1.14 µM) in test [8]; 12.5 µg/mL (≈ 18.3 µM) in test [9]; 6.25 µg/mL (≈ 9.15 µM) in test [10]; 50 µg/mL (≈ 73.2 µM) in [11]; 1.56 µg/mL (≈ 2.28 µM) in test [12]. In addition, the MIC in test [13] and in test [14] was more than 100 µg/mL in each case.

With `CN1C(=O)[C@H]([C@H](O[C@@H]2O[C@H](CN)[C@@H](O)[C@H]2O)[C@H]2O[C@@H](n3ccc(=O)[nH]c3=O)[C@H](O)[C@@H]2O)N(C)CC=C1C(=O)Nc1ccc(C2CCCCC2)cc1`, the MIC in test [1] is 12.5 µg/mL (≈ 17.5 µM); in test [2], 1.56 µg/mL (≈ 2.18 µM); in [3], 1.56 µg/mL (≈ 2.18 µM); in test [4] it was 0.78 µg/mL (≈ 1.09 µM); in [5], 100 µg/mL (≈ 140 µM); in [6], 1.56 µg/mL (≈ 2.18 µM). The MIC in test [7] was found to be 0.39 µg/mL (≈ 0.546 µM); in test [8] it was 1.56 µg/mL (≈ 2.18 µM); in test [9], 25 µg/mL (≈ 35 µM); in test [10], 100 µg/mL (≈ 140 µM); in test [11], 0.39 µg/mL (≈ 0.546 µM); in test [12], 100 µg/mL (≈ 140 µM). For the same molecule, the MIC was 6.25 µg/mL (≈ 8.74 µM) in test [13] and 12.5 µg/mL (≈ 17.5 µM) in test [14].

With `CCCCCCCCCCCCCCCCCCOC(=O)C1=CCN(C)[C@@H]([C@H](O[C@@H]2O[C@H](CN)[C@@H](O)[C@H]2O)[C@H]2O[C@@H](n3ccc(=O)[nH]c3=O)[C@H](O)[C@@H]2O)C(=O)N1C`, the MIC was more than 100 µg/mL in [1]; 6.25 µg/mL (≈ 7.72 µM) in [2]; 12.5 µg/mL (≈ 15.4 µM) in test [3]; 3.13 µg/mL (≈ 3.86 µM) in [4]; 50 µg/mL (≈ 61.7 µM) in test [5]; 3.13 µg/mL (≈ 3.86 µM) in test [6]. Also, the MIC in test [7] is 6.25 µg/mL (≈ 7.72 µM); in [8], more than 100 µg/mL; in test [9], more than 100 µg/mL; in test [10], 25 µg/mL (≈ 30.9 µM); in [11], 50 µg/mL (≈ 61.7 µM); in [12], 3.13 µg/mL (≈ 3.86 µM). Further, the minimum inhibitory concentration (MIC) in test [13] and in test [14] was more than 100 µg/mL in each case.

`CCCCCCCCCCNC(=O)C1=CCN(C)[C@@H]([C@H](O[C@@H]2O[C@H](CN)[C@@H](O)[C@H]2O)[C@H]2O[C@@H](n3ccc(=O)[nH]c3=O)[C@H](O)[C@@H]2O)C(=O)N1C`: the MIC is 25 µg/mL (≈ 35.9 µM) in [1]; 1.56 µg/mL (≈ 2.24 µM) in test [2]; 0.39 µg/mL (≈ 0.56 µM) in test [3]; 6.25 µg/mL (≈ 8.97 µM) in [4]; more than 100 µg/mL in test [5]; 1.56 µg/mL (≈ 2.24 µM) in test [6]. The minimum inhibitory concentration (MIC) is 0.78 µg/mL (≈ 1.12 µM) in test [7]; 6.25 µg/mL (≈ 8.97 µM) in test [8]; 50 µg/mL (≈ 71.8 µM) in test [9]; 0.78 µg/mL (≈ 1.12 µM) in [10]; more than 100 µg/mL in [11]; more than 100 µg/mL in test [12]. For the same molecule, the minimal inhibitory concentration (MIC) in test [13] and in test [14] was more than 100 µg/mL throughout.

Turning to `CCCCCCCCNC(=O)C1=CCN(C)[C@@H]([C@H](O[C@@H]2O[C@H](CN)[C@@H](O)[C@H]2O)[C@H]2O[C@@H](n3ccc(=O)[nH]c3=O)[C@H](O)[C@@H]2O)C(=O)N1C`, the MIC in test [1] worked out at 100 µg/mL (≈ 150 µM); in test [2], 3.3 µg/mL (≈ 4.93 µM); in test [3], 3.13 µg/mL (≈ 4.68 µM); in test [4], 25 µg/mL (≈ 37.4 µM); in test [5], 3.13 µg/mL (≈ 4.68 µM); in [6], 0.78 µg/mL (≈ 1.17 µM). Also, the minimum inhibitory concentration (MIC) in test [7] is 12.5 µg/mL (≈ 18.7 µM); in [8], 6.25 µg/mL (≈ 9.35 µM); in test [9] it was 100 µg/mL (≈ 150 µM); in [10], 100 µg/mL (≈ 150 µM); in [11] it was more than 100 µg/mL; in [12], more than 100 µg/mL. Besides, the MIC in test [13] and in test [14] was more than 100 µg/mL in each case.
